Data taken from publication PMC12670405, “Second-Generation AURKA-Targeting PROTACs: Structural Optimization toward in Vivo Degradation in Neuroblastoma” (Journal of Medicinal Chemistry, 2025).

Legend:
Assay in all cases: LC-MS/MS proteome profiling
Type in all cases: cell-based, Homo sapiens
Set-up in all cases: key to Significant (24h SK5527vs24h DMSO) FDR0 05: +: Statistical significance for differential regulation was set to a false discovery rate (FDR) of < 0.05 and |log2FC| = 2
PLK1 = test system: PLK1
Procedure: (§1) IMR-32 cells were seeded in T-25 flasks at a density of 1.7 million cells/flask and treated the next day with DMSO (negative control), SK5527 (500 nM) or MK-5108 (500 nM) for 3 or 24 h (data for MK-5108 not discussed in this manuscript). Cell pellets were harvested at the respective time points, lysed, and the concentration of the obtained protein lysates measured as previously described. Details on further sample preparation, LC–MS/MS, and data analysis can be found in the Supporting Information. The LC–MS/MS proteomics data have been deposited to the ProteomeXchange Consortium via the PRIDE partner repository with the data set identifier PXD061539.
(§2) Supplementary Methods 1 – LC-MS/MS proteomics
(§3) From each sample, 100 µg of protein was isolated, the volumes were equalized with water and SDS and TEAB were added to a final concentration of 5% and 50 mM, respectively. Proteins were reduced and alkylated by addition of 10 mM Tris(2-carboxyethyl)phosphine hydrochloride and 40 mM chloroacetamide and incubation for 30 minutes at 25°C in the dark. Phosphoric acid was added to a final concentration of 1.2%, and samples were subsequently diluted 7-fold with binding buffer containing 90% methanol in 100 mM TEAB, pH 7.55. The samples were loaded on the 96-well S-Trap™ plate (Protifi), placed on top of a deepwell plate, and centrifuged for 2 min at 1,500 x g at RT. After protein binding, the S-trap™ plate was washed three times by adding 200 µl binding buffer and centrifugation for 2 min at 1,500 x g at RT. A new deepwell receiver plate was placed below the 96-well S-Trap™ plate and 50 mM TEAB containing trypsin (1/100, w/w) was added for digestion overnight at 37°C.
(§4) Using centrifugation for 2 min at 1,500 x g, peptides were eluted in three steps, first with 80 µl 50 mM TEAB, then with 80 µl 0.2% formic acid (FA) in water and finally with 80 µl 0.2% FA in water/acetonitrile (ACN) (50/50, v/v). Eluted peptides were dried completely by vacuum centrifugation.
(§5) Peptides were re-dissolved in 20 µl loading solvent A (0.1% trifluoroacetic acid in water/acetonitrile (ACN) (99.5:0.5, v/v)) of which 2 µl of sample was injected for LC-MS/MS analysis on an Ultimate 3000 ProFlow nanoLC system in-line connected to a Orbitrap Exploris 240 mass spectrometer (Thermo) equipped with pneu-Nimbus dual ion source (Phoenix S&T). Trapping was performed at 20 μl/min for 2 min in loading solvent A on a PepMap™ Neo Trap column (Thermo scientific, 300 μm internal diameter (I.D.), 5 μm beads). The peptides were separated on a 250 mm Odyssey Ultimate, 1.7µm C18, 75 µm inner diameter (Ionopticks) kept at a constant temperature of 45°C. Peptides were eluted by a gradient reaching 26,4 % MS solvent B (0.1% FA in acetonitrile) after 80 min, 44% MS solvent B at 95 min, 56% MS solvent B at 100min followed by a 5-minutes wash at 56% MS solvent B and re-equilibration with MS solvent A (0.1% FA in water). The flow rate was set to 250 nl/min. The mass spectrometer was operated in data-independent mode, automatically switching between MS and MS/MS acquisition. Full-scan MS spectra ranging from 375-1500 m/z with a normalized target value of 300%, a maximum fill time of 25 ms and a resolution at of 60,000 were followed by 30 quadrupole isolations with a precursor isolation width of 10 m/z for HCD fragmentation at an NCE of 30% after filling the trap at a normalized target value of 2000% for maximum injection time of 45 ms. MS2 spectra were acquired at a resolution of 15,000 with a scan range of 200-1800 m/z in the Orbitrap analyser without multiplexing. The isolation intervals were set from 400 – 900 m/z with a width of 10 m/z using window placement optimization. The polydimethylcyclosiloxane background ion at 445.120028 Da was used for internal calibration (lock mass) and QCloud has been used to control instrument longitudinal performance during the project.
(§6) Analysis of the mass spectrometry data was performed in DiaNN (version 1.9). Precursor false discovery rate was […]
(§7) set at 1%. […]

ZNF660 = test system: ZNF660
Procedure: as §1, §2, §3, §4, §5, §6, §7

CKAP2 = test system: CKAP2
Procedure: as §1, §2, §3, §4, §5, §6, §7

Q: How did the “logFC (3h SK5527vs3h DMSO)” value (PLK1; IMR-32, 3h) turn out when `Cc1cc(Nc2ccc(F)c(CC3(C(=O)N4CCC(F)(CN5CCN(c6ccc(N7CCC(=O)NC7=O)cn6)CC5)CC4)CCN(Cc4cccc(Cl)c4F)CC3)n2)n[nH]1` [SK5527] was run?
A: 0.31

Q: What about the “Significant (24h SK5527vs24h DMSO) FDR0 05” value (“Significant” for short) (PLK1; IMR-32, 24h) of the same compound?
A: +

Q: What about the “logFC (24h SK5527vs24h DMSO)” value (PLK1; IMR-32, 24h) of the same compound?
A: 2.19

Q: And the “logFC PLK1” value (PLK1; SK5527 vs DMSO (24h))?
A: 2.19

Q: And the “logFC (3h SK5527vs3h DMSO)” value (ZNF660; IMR-32, 3h)?
A: -0.15

Q: And the “Significant” value (ZNF660; IMR-32, 24h)?
A: +

Q: And the “logFC (24h SK5527vs24h DMSO)” value (ZNF660; IMR-32, 24h)?
A: -2.02

Q: What about the “logFC ZNF660” value (ZNF660; SK5527 vs DMSO (24h)) of the same compound?
A: -2.02

Q: What about the “logFC (3h SK5527vs3h DMSO)” value (CKAP2; IMR-32, 3h) of the same compound?
A: 0.32

Q: And the “Significant” value (CKAP2; IMR-32, 24h)?
A: +

Q: What about the “logFC (24h SK5527vs24h DMSO)” value (CKAP2; IMR-32, 24h) of the same compound?
A: 2.1

Q: And the “logFC CKAP2” value (CKAP2; SK5527 vs DMSO (24h))?
A: 2.1
